According to patent US20230365530A1, “QUINAZOLINE-2,4-DIAMINE DERIVATIVE AND PHARMACEUTICAL COMPOSITION FOR PREVENTING OR TREATING CANCER COMPRISING SAME AS ACTIVE INGREDIENT” (THE ASEAN FOUNDATION, priority 2020, published 2023):

target: EHMT2 (Euchromatic histone-lysine N-methyltransferase 2) (Homo sapiens (Human), UniProt Q96KQ7); test: EHMT2 enzyme inhibition, LANCE TR-FRET; type: biochemical; conditions: histone H3 peptide, 1 hour at room temperature
Experimental: In order to analyze the enzyme inhibitory efficacy of the compounds of Examples 1 to 89, EHMT2 (Euchromatic histone-lysine N-methyltransferase 2) enzyme activity was measured using the LANCE TR-FRET™ analysis method of Perkin Elmer. When the EHMT2 enzyme is activated, the 9th lysine residue of the biotinylated-histone peptide is methylated and the EU-conjugated antibody is combined to the methylated histone peptide. Then, when the complex is irradiated with light of excitation wavelength, the complex emits light having a wavelength of 665 nm through FRET phenomenon. Accordingly, fluorescence was measured, and IC50 values were calculated through a software to evaluate the EHMT2 enzyme activity inhibitory effect of the compounds of Examples 1 to 89.
Specific experimental methods are as follows. First, the compounds of Examples 1 to 89 of 1 nM to 100 μM (4× conc.) were put into a 384 well plate (25 μL/well), and 2 μM EEMT2/G9a enzyme (4× conc.) was put into the 384 well plate (25 μL/well). The plate was then centrifuged at 1,500 rpm for 5 seconds after sealing the plate with plate sealing foil. After incubating the EHMT2/G9a enzyme, SAM, and the compounds of Examples above at room temperature for 10 minutes, 2 μM histone H3 peptide (4× conc.) was added to the 384-well plate (25 μL/well). After sealing the plate with plate sealing foil and centrifuging at 1,500 rpm for 5 seconds, an enzymatic reaction was performed at room temperature for 1 hour. Upon completion of the enzyme reaction, 5 μL each of 200 nM Ulight™-Streptavidin (4× conc.) and 8 nM Eu-antibody (4× conc.) was added to each well of the plate. The plate was sealed with plate sealing foil, centrifuged at 1,500 rpm for 5 seconds and reacted at room temperature for 1 hour. The signal values were measured with Envision (Ex 320 nm, Em 665 nm), and all background values obtained by reacting without enzyme were deleted from the measured raw data values. Then, the EHMT2 enzyme activity inhibitory effect of the compounds of Examples 1 to 89 was converted into % values, and compared with the EHMT2 activity when treated with 4% DMSO vehicle (=0 nM compound) as 100%.

Sequence of EHMT2 (Euchromatic histone-lysine N-methyltransferase 2) (Q96KQ7 whole entry): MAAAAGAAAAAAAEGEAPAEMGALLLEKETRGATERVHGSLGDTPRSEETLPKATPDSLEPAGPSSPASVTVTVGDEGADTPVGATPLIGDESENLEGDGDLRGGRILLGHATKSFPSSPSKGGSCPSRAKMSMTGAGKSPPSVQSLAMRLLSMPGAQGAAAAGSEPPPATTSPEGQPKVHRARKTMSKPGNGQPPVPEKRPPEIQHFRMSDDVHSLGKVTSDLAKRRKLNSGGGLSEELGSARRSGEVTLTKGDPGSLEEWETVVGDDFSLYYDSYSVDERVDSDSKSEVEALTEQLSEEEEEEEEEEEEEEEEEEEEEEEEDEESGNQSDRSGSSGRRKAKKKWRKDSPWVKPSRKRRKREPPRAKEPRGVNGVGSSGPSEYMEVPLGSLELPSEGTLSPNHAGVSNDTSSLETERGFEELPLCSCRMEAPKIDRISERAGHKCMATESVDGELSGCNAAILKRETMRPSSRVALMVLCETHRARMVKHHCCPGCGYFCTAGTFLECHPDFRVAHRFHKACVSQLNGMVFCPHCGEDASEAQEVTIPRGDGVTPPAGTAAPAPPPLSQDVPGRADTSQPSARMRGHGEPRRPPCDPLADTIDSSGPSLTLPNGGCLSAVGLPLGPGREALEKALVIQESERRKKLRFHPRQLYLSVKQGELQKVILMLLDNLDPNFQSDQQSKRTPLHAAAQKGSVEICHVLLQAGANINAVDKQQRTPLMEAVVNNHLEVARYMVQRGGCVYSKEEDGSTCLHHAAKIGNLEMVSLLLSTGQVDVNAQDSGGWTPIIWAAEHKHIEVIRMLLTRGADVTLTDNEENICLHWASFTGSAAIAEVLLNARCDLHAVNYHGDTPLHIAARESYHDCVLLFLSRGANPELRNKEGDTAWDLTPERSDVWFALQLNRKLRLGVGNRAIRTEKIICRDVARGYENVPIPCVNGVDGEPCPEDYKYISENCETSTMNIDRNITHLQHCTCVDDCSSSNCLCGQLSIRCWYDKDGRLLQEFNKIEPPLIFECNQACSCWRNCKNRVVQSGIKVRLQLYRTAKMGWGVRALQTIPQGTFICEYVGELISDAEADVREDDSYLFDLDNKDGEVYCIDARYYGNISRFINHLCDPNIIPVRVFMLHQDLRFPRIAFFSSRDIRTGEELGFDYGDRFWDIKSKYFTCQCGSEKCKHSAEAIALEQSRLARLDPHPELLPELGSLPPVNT

IC50	Structure (SMILES)
100 to 1000 nM	COc1cc2c(NCCN(C)C)nc(N3CCCCC3)nc2cc1C#CCCN(C)C [Example 28, N1-(7-(4-(dimethylamino)-1-butyne-1-yl)-6-methoxy-2-(piperidine-1-yl)quinazoline-4-yl)-N2,N2-dimethylethane-1,2-diamine]
100 to 1000 nM	COc1cc2c(NC3CCN(C(C)C)CC3)nc(N3CCCCC3)nc2cc1C#CCCN1CC[C@H](F)C1 [Example 29, (S)-7-(4-(3-fluoropyrrolidine-1-yl)-1-butyne-1-yl)-N-(1-isopropylpiperidine-4-yl)-6-methoxy-2-(piperidine-1-yl)quinazoline-4-amine]
100 to 1000 nM	COc1cc2c(NC3CCN(C(C)C)CC3)nc(N3CCCCC3)nc2cc1C#CCCN1CC[C@@H](F)C1 [Example 30, (R)-7-(4-(3-fluoropyrrolidine-1-yl)-1-butyne-1-yl)-N-(1-isopropylpiperidine-4-yl)-6-methoxy-2-(piperidine-1-yl)quinazoline-4-amine]
1000 to 10000 nM	COc1cc2c(NCC3CCN(C)CC3)nc(N3CCCCC3)nc2cc1C#CCCN(C)C [Example 31, 7-(4-(dimethylamino)-1-butyne-1-yl)-6-methoxy-N-((1-methylpiperidine-4-yl)methyl)-2-(piperidine-1-yl)quinazoline-4-amine]
10000 to 100000 nM	COc1cc2c(NCc3ccncc3)nc(N3CCCCC3)nc2cc1C#CCCN(C)C [Example 32, 7-(4-(dimethylamino)-1-butyne-1-yl)-6-methoxy-2-(piperidine-1-yl)-N-(pyridine-4-ylmethyl)quinazoline-4-amine]
10000 to 100000 nM	COc1cc2c(NC3CCN(C(C)C)CC3)nc(N3CCCCC3)nc2cc1C#CCCN1CC(F)C1 [Example 33, 7-(4-(3-fluoroazetidine-1-yl)-1-butyne-1-yl)-N-(1-isopropylpiperidine-4-yl)-6-methoxy-2-(piperidine-1-yl)quinazoline-4-amine]
10000 to 100000 nM	COc1cc2c(NCCc3ccncc3)nc(N3CCCCC3)nc2cc1C#CCCN(C)C [Example 34]
1000 to 10000 nM	COc1cc2c(NC3CCN(C(C)C)CC3)nc(N3CCC(F)(F)CC3)nc2cc1C#CCCN1CCCC1 [Example 35, 2-(4,4-difluoropiperidine-1-yl)-N-(1-isopropylpiperidine-4-yl)-6-methoxy-7-(4-(pyrrolidine-1-yl)-1-butyne-1-yl)quinazoline-4-amine]
< 100 nM	COc1cc2c(NC3CCN(C(C)C)CC3)nc(N3CCCCCC3)nc2cc1C#CCCN1CCCC1 [Example 36]
100 to 1000 nM	COc1cc2c(NC3CCN(C(C)C)CC3)nc(N3CCCCCC3)nc2cc1C#CCCN1CCCCC1 [Example 37, 2-(azepane-1-yl)-N-(1-isopropylpiperidine-4-yl)-6-methoxy-7-(4-(piperidine-1-yl)-1-butyne-1-yl)quinazoline-4-amine]
100 to 1000 nM	COc1cc2c(NC3CCN(C(C)C)CC3)nc(N3CCN(C)CC3)nc2cc1C#CCCN1CCCC1 [Example 38, N-(1-isopropylpiperidine-4-yl)-6-methoxy-2-(4-methylpiperazine-1-yl)-7-(4-(pyrrolidine-1-yl)-1-butyne-1-yl)quinazoline-4-amine]
1000 to 10000 nM	COc1cc2c(NC3CCN(C(C)C)CC3)nc(N3CCN(C)CC3)nc2cc1C#CCCN1CCCCC1 [Example 39, N-(1-Disopropylpiperidine-4-yl)-6-methoxy-2-(4-methylpiperazine-1-yl)-7-(4-(piperidine-1-yl)-1-butyne-1-yl)quinazoline-4-amine]
100 to 1000 nM	COc1cc2c(NC3CCN(C(C)C)CC3)nc(N3CCC4(CCCC4)C3)nc2cc1C#CCCN1CCCC1 [Example 40, N-(1-isopropylpiperidine-4-yl)-6-methoxy-7-(4-(pyrrolidine-1-yl)-1-butyne-1-yl)-2-(2-azaspiro[4.4]nonane-2-yl)quinazoline-4-amine]
1000 to 10000 nM	COc1cc2c(NC3CCN(C(C)C)CC3)nc(N3CCC4(CCCC4)C3)nc2cc1C#CCCN1CCCCC1 [Example 41, N-(1-isopropylpiperidine-4-yl)-6-methoxy-7-(4-(piperidine-1-yl)-1-butyne-1-yl)-2-(2-azaspiro[4.4]nonane-2-yl)quinazoline-4-amine]
< 100 nM	COc1cc2c(NC3CCN(C(C)C)CC3)nc(N3CCCC3)nc2cc1C#CCCN1CCCCC1 [Example 43, N-(1-isopropylpiperidine-4-yl)-6-methoxy-7-(4-(piperidine-1-yl)-1-butyne-1-yl)-2-(pyrrolidine-1-yl)quinazoline-4-amine]
< 100 nM	COc1cc2c(NC3CCN(C(C)C)CC3)nc(N(C)C)nc2cc1C#CCCN1CCCCC1 [Example 44, N-(1-isopropylpiperidine-4-yl)-6-methoxy-N2,N2-dimethyl-7-(4-(piperidine-1-yl)-1-butyne-1-yl)quinazoline-2,4-diamine]
< 100 nM	COc1cc2c(NC3CCN(C(C)C)CC3)nc(N3CCCN(C)CC3)nc2cc1C#CCCN1CCCCC1 [Example 45, N-(1-isopropylpiperidine-4-yl)-6-methoxy-2-(4-methyl1,4-diazepane-1-yl)-7-(4-(piperidine-1-yl)-1-butyne-1-yl)quinazoline-4-amine]
< 100 nM	COc1cc2c(NC3CCN(C(C)C)CC3)nc(N3C[C@@H]4C[C@@H]4[C@@H]3CO)nc2cc1C#CCCN1CCCC1 [Example 46, ((1S,2R,5R)-3-(4-((1-isopropylpiperidine-4-yl)amino)-6-methoxy-7-(4-(pyrrolidine-1-yl)-1-butyne-1-yl)quinazoline-2-yl)-3-azabicyclo[3.1.0]hexane-2-yl)methanol]
< 100 nM	COc1cc2c(NC3CCN(C(C)C)CC3)nc(N3C[C@@H]4C[C@@H]4[C@@H]3CO)nc2cc1C#CCCN1CCCCC1 [Example 47, ((1S,2R,5R)-3-(4-((1-isopropylpiperidine-4-yl)amino)-6-methoxy-7-(4-(piperidine-1-yl)-1-butyne-1-yl)quinazoline-2-yl)-3-azabicyclo[3.1.0]hexane-2-yl)methanol]
< 100 nM	COc1cc2c(NC3CCN(C(C)C)CC3)nc(N3CCCN(C)CC3)nc2cc1C#CCCN1CCCC1 [Example 48, N-(1-isopropylpiperidine-4-yl)-6-methoxy-2-(4-methyl-1,4-diazepane-1-yl)-7-(4-(pyrrolidine-1-yl)-1-butyne-1-yl)quinazoline-4-amine]
< 100 nM	CCN1CCC(Nc2nc(N3CCCCC3)nc3cc(C#CCCN(C)C)c(OC)cc23)CC1 [Example 50, 7-(4-(dimethylamino)-1-butyne-1-yl)-N-(1-ethylpiperidine-4-yl)-6-methoxy-2-(piperidine-1-yl)quinazoline-4-amine]
< 100 nM	CCN1CCC(Nc2nc(N3CCCCC3)nc3cc(C#CCCN4CCCC4)c(OC)cc23)CC1 [Example 51, N-(1-ethylpiperidine-4-yl)-6-methoxy-2-(piperidine-1-yl)-7-(4-(pyrrolidine-1-yl)-1-butyne-1-yl)quinazoline-4-amine]
< 100 nM	COc1cc2c(NC3CCN(C4CC4)CC3)nc(N3CCCCC3)nc2cc1C#CCCN1CCCC1 [Example 53, N-(1-cyclopropylpiperidine-4-yl)-6-methoxy-2-(piperidine-1-yl)-7-(4-(pyrrolidine-1-yl)-1-butyne-1-yl)quinazoline-4-amine]
< 100 nM	COc1cc2c(NC3CCN(C4CC4)CC3)nc(N3CCCC3)nc2cc1C#CCCN1CCCC1 [Example 54, N-(1-cyclopropylpiperidine-4-yl)-6-methoxy-2-(pyrrolidine-1-yl)-7-(4-(pyrrolidine-1-yl)-1-butyne-1-yl)quinazoline-4-amine]
< 100 nM	COc1cc2c(NC3CCN(C(C)C)CC3)nc(N3CC[C@H](F)C3)nc2cc1C#CCCN1CCCC1 [Example 57, (S)-2-(3-fluoropyrrolidine-1-yl)-N-(1-isopropylpiperidine-4-yl)-6-methoxy-7-(4-(pyrrolidine-1-yl)-1-butyne-1-yl)quinazoline-4-amine]
< 100 nM	COc1cc2c(NC3CCN(C(C)C)CC3)nc(N3CC(F)C3)nc2cc1C#CCCN1CCCC1 [Example 59, 2-(3-fluoroazetidine-1-yl)-N-(1-isopropylpiperidine-4-yl)-6-methoxy-7-(4-(pyrrolidine-1-yl)-1-butyne-1-yl)quinazoline-4-amine]
< 100 nM	COc1cc2c(NCCN(C)C)nc(N(C)C)nc2cc1C#CCCN1CCCC1 [Example 61, N4-(2-(dimethylamino)ethyl)-6-methoxy-N2,N2-dimethyl-7-(4-(pyrrolidine-1-yl)-1-butyne-1-yl)quinazoline-2,4-diamine]
< 100 nM	COc1cc2c(NCCN(C)C)nc(N3CCCN(C)CC3)nc2cc1C#CCCN1CCCC1 [Example 62, N1-(6-methoxy-2-(4-methyl-1,4-diazepane-1-yl)-7-(4-(pyrrolidine-1-yl)-1-butyne-1-yl)quinazoline-4-yl)-N2,N2-dimethylethane-1,2-diamine]
